This is an account of results in KR20100075412A, “방사성 세포 표지자” (경북대학교 산학협력단, priority 2008, dated 2010).

Like-named read-outs stand apart in the source and are kept apart here.

One data set relates to cells [세포]. The note with it: cited from earlier work.
Data set [1] in a line: MicroPET imaging after tail vein injection of [124I]HIB. It counts as in vivo. As to conditions: mouse.
Another data set concerns labelled cells [표지한 세포]. Put plainly: MicroPET imaging after tail vein injection of [124I]HIB-labelled cells. As to conditions: mouse, imaged for 2 h after injection, for 2 h at 18 h, and up to 66 h (about 3 days). It counts as in vivo.
The next data set deals with H9C2 cells. Put plainly: Cell labelling with [131I]OIB / [131I]HIB, H9C2 cells. As to conditions: H9C2, in PBS, centrifuged and washed several times. It counts as cell-based.
Another data set deals with HeLa cells. Put plainly: Cell labelling with [131I]OIB / [131I]HIB, HeLa cells. Format: cell-based. As to conditions: in PBS, centrifuged and washed several times.
The subject of the next data set is SCC-7 cells. Description: Cell labelling with [131I]OIB / [131I]HIB, SCC-7 cells. Format: cell-based. As to conditions: SCC-7, in PBS, centrifuged and washed several times.
Another data set deals with 4T1 cells. Put plainly: Cell labelling with [131I]OIB / [131I]HIB, 4T1 cells. It counts as cell-based. The note with it: 4T1, in PBS, centrifuged and washed several times.
The test system of a further data set is L6 cells. Description: Cell labelling with [131I]OIB / [131I]HIB, L6 cells. It counts as cell-based, rat. The note with it: for cell labelling yield: L6, in PBS, centrifuged and washed several times.
Data set [2] relates to rat cardiomyocytes L6 [랫트(rat) 심근세포 L6]. Description: Gamma camera imaging of labelled L6 cells transplanted into rat myocardium. Format: in vivo. As to conditions: L6 labelled for 2 h, transplanted directly into rat myocardium.
Data set [3] relates to cells with introduced L6-NIS/GFP reporter [L6-NIS/GFP 리포터가 이입된 세포]. Put plainly: Gamma camera and GFP imaging of labelled L6-NIS/GFP cells injected subcutaneously in nude mice. Format: in vivo, nude mouse.

Take `OC[C@H]1OC(O)[C@H]([18F])[C@@H](O)[C@@H]1O` (stereo partly drawn) [[18F]FDG, 2-[18F]fluoro-2-deoxy-D-glucose]: the “release of label from cells” value in the data set with cells [세포] is given as “수 시간 후에 세포에서 떨어져 나와”.

Take `O=C(ON1C(=O)CCC1=O)c1ccc([18F])cc1` [[18F]FSB, N-succimidyl-4-[18F]fluorobenzoate]: the “loss of label from cells” value in the data set with cells [세포] (according to previous results) is “알킬레이트된 부분이 신진 대사로 방출되면서 세포에서 표지자가 빠져나가는 것으로 여겨진다”.

In the case of `CNC(=S)NN=CC(C)=NNC(=S)NC.[64Cu]` [[64Cu]PTSM, [64Cu]pyruvaldehyde-bis-(n4-methyl-thiosemicarbazone)], the “release of label from cells” value in the data set with cells [세포] (after incubation with cells) was “수 시간 후에 세포에서 떨어져 나와”. In addition, the “duration of cell labelling” value in the data set with cells [세포] (compared with other F-18/Cu-64 labelling) is “좀 더 장기간 세포 표지가 가능하였다”.

As for `CCCCCCCCCCCCCCCCOC(=O)c1ccc([124I])cc1` [[124I]HIB], in [1], the “accumulation in thyroid and bladder (microPET)” value was “갑상선과 방광 부위에 [124I]HIB가 축적되는 것을 확인”; the “accumulation of activity in liver (microPET)” value is listed as “간 위치에 활성도가 축적”. In addition, in data set [1] (inferred from liver activity), the excretion route result was “간을 통하여 배출되는 것으로 여겨진다”. In addition, the “time up to which labelled cells were seen accumulated in lung (microPET)” value in the data set with labelled cells [표지한 세포] was found to be 66 h.

As to `CCCCCCCCCCCCCCCCOC(=O)c1ccc([131I])cc1` [[131I]HIB], the cell labelling yield with H9C2 cells, with HeLa cells, in the data set with SCC-7 cells, in the data set with 4T1 cells and in the data set with L6 cells was at least 20% throughout.

For `CCCCCCCC/C=C\CCCCCCCCOC(=O)c1ccc([131I])cc1` [[131I]OIB], the “period over which transplanted labelled cells were imaged by gamma camera” value in data set [2] is 2 weeks. In addition, the cell labelling yield in the data set on H9C2 cells, in the data set on HeLa cells, in the data set with SCC-7 cells, in the data set on 4T1 cells and in the data set with L6 cells was at least 20% throughout. This compound also registered a cell labelling efficiency in the data set on L6 cells ([131I]OIB 136 μCi, 4x10^5 L6 cells in serum-free medium, room temperature, 30 min, washed twice with PBS) of 26%. Further, in [3] (1x10^7 [131I]OIB-labelled cells s.c. in each thigh and shoulder of nude mouse), the “time up to which GFP imaging was measurable” value turned out to be 14 days. Further, the “time up to which labelled cells were visible by gamma camera” value in data set [3] (1x10^7 cells s.c. in each thigh and shoulder of nude mouse, gamma camera day 1 to 14) turned out to be 14 days.
